These are literature values, as cited in patent EP2502493B1, “Novel alpha-galactosidases” (Velico Medical, Inc., priority 2005, dated 2007).

The data set deals with α-galactosidase from the marine bacterium Pseudoalteromonas spp. (KMM 701). To be noted: isolated enzyme preparation, purified to 9.8U/mg; monosaccharide substrate pNP-Gal; read-out: apparent Km for pNP-Gal.

What is called Km is the concentration of substrate that gives half-maximal velocity. With `O=[N+]([O-])c1ccc(O[C@H]2O[C@H](CO)[C@H](O)[C@H](O)[C@H]2O)cc1` [pNP-Gal, p-nitrophenyl α-D-Gal], the Michaelis constant (Km) was 290 µM.
